Laboratory results: patent publication EP0041644B1 (priority 1980, dated 1981)
Marks after values point to notes of the source that are not given here.

What was measured:
L-1210 Leukemia [1] = assay: L-1210 Leukemia (Table IX); assay type: in vivo, mice
B16 Melanoma [2] = assay: B16 Melanoma - Test 3 (sc trocar fragments); assay type: in vivo, mice; conditions: for Effect MST %TC / MST Days: qd 1→9
Lewis Lung Carcinoma = Lewis Lung Carcinoma - Test 1 (ip, delayed therapy); assay type: in vivo, mice
B16 Melanoma [3] = assay: B16 Melanoma - Test 2 (ip tumor brei); assay type: in vivo, mice; conditions: QD +9
B16 Melanoma [4] = assay: B16 Melanoma - Test 1 (ip tumor brei); assay type: in vivo, mice; conditions: for Effect MST % T/C / MST Days: QD 1→9, vehicle CMC + H2O
L1210 Leukemia [5] = assay: L1210 Leukemia - Test 1 (survival of tumor-bearing mice); assay type: in vivo; conditions: d. 1 only
Text: This evaluation of the ammonium salt finds the drug to be active against L1210 (ip) leukemia when administered ip one day post-implant of 10^6 L1210 cells (maximum T/C was 164%). […] The vehicle for the ammonium salt was water.

L1210 Leukemia [6] = assay: L1210 Leukemia - Test 3 (vehicle comparison); assay type: in vivo, mice; conditions: Day 1 only, vehicle CMC + saline
L-1210 Leukemia [7] = assay: L-1210 Leukemia (Table VIII); conditions: for lethality: 200 mg/kg, single ip injection; for maximum T/C / optimal doses: single ip injections; for optimal doses: dose of maximum T/C
Procedure: The sodium and ammonium salts of the present invention were tested against transplantable mouse tumors as indicated below. The methodology used generally followed the protocols of the National Cancer Institute (Cancer Chemotherapy Rep., Part 3, 3, 1-103 (1972). The essential experimental details are given at the bottom of the following tables.

## O=C1[O][Pt]2([NH]CC3(CCCCC3)C[NH]2)[O]C(=O)C1[O-].[Na+] [Example 9, 2-Hydroxymalonato (1,1-diaminomethylcyclohexane)-platinum (II), sodium salt]
L-1210 Leukemia [1]; 2 mg/kg/inj ip, qd 1→9
  Average Weight Change,g: -1.3 g
  Effect MST % T/C: 131 % T/C
  MST Days: 8.5 days
L-1210 Leukemia [1]; 4 mg/kg/inj ip, qd 1→9
  Average Weight Change,g: -1.2 g
  Effect MST % T/C: 154 % T/C
  MST Days: 10.0 days
L-1210 Leukemia [1]; 8 mg/kg/inj ip, qd 1→9
  Average Weight Change,g: -1.3 g
  Effect MST % T/C: 238 % T/C
  MST Days: 15.5 days
L-1210 Leukemia [1]; 12 mg/kg/inj ip, Day 1
  Average Weight Change,g: -1.8 g
  Effect MST % T/C: 162 % T/C
  MST Days: 10.5 days
L-1210 Leukemia [1]; 12 mg/kg/inj ip, qd 1→9
  Average Weight Change,g: -3.0 g
  Effect MST % T/C: 292 % T/C
  MST Days: 19.0 days
L-1210 Leukemia [1]; 24 mg/kg/inj ip, Day 1
  Average Weight Change,g: -3.7 g
  Effect MST % T/C: 215 % T/C
  MST Days: 14.0 days
L-1210 Leukemia [1]; 36 mg/kg/inj ip, Day 1
  Average Weight Change,g: -4.3 g
  Effect MST % T/C: 223 % T/C
  MST Days: 14.5 days
L-1210 Leukemia [1]; 48 mg/kg/inj ip, Day 1
  Average Weight Change,g: -3.6 g
  Effect MST % T/C: 200 % T/C
  MST Days: 13.0 days
L-1210 Leukemia [1]; qd 1→9 (cis-DDP 2.4, parent 8 and 12, sodium salt 12 mg/kg/injection)
  maximum T/C: 292%
L-1210 Leukemia [1]; single ip injection at maximum tolerated dose (cis-DDP 8 mg/kg, the two others 36 mg/kg)
  maximum T/C: 223%
other
  Water-solubility at room temperature: ≥ 100 mg/mL

## [NH2][Pt]1([NH2])[O]C(=O)C(O)C(=O)[O]1 [2-Hydroxymalonato diammine platinum (II), 2-hydroxymalonato diammine platinum (II)]
B16 Melanoma [2]; 8 mg/kg/inj ip
  Effect MST %TC: 131 %TC
  MST Days: 40.0 days
B16 Melanoma [2]; 12 mg/kg/inj ip
  Effect MST %TC: 115 %TC
  MST Days: 35.0 days
B16 Melanoma [2]; 16 mg/kg/inj ip
  Effect MST %TC: 48 %TC
  MST Days: 14.5 days
B16 Melanoma [2]; 24 mg/kg/inj ip
  Effect MST %TC: TOX
  MST Days: TOX
B16 Melanoma [2]; given ip, sc-implanted B16 melanoma
  T/C: 131%
Lewis Lung Carcinoma; 8 mg/kg/inj ip, qd 5→13
  Effect MST %TC: 112 %TC
  MST Days: 14.0 days
Lewis Lung Carcinoma; 12 mg/kg/inj ip, qd 5→13
  Effect MST %TC: 168 %TC
  MST Days: 21.0 days
Lewis Lung Carcinoma; 16 mg/kg/inj ip, qd 5→13
  Effect MST %TC: 176 %TC
  MST Days: 22.0 days
Lewis Lung Carcinoma; 20 mg/kg/inj ip, d. 5,9&13
  Effect MST %TC: 100 %TC
  MST Days: 12.5 days
Lewis Lung Carcinoma; 24 mg/kg/inj ip, qd 5→13
  Effect MST %TC: 220 %TC
  MST Days: 27.5 days
Lewis Lung Carcinoma; 40 mg/kg/inj ip, d. 5,9&13
  Effect MST %TC: 120 %TC
  MST Days: 15.0 days
Lewis Lung Carcinoma; 60 mg/kg/inj ip, d. 5,9&13
  Effect MST %TC: 156 %TC
  MST Days: 19.5 days
Lewis Lung Carcinoma; 80 mg/kg/inj ip, d. 5,9&13
  Effect MST %TC: 152 %TC
  MST Days: 19.0 days
Lewis Lung Carcinoma; Day 48 (figure in parentheses), 60 mg/kg/inj ip, d. 5,9&13
  Survivors Day 9(48): 1
Lewis Lung Carcinoma; given ip, therapy from day 5
  maximum T/C: 220%
Lewis Lung Carcinoma; mouse, in vivo, ip, 8 mg/kg
  Survivors Day 9(48): 6/6
Lewis Lung Carcinoma; mouse, in vivo, ip, 12 mg/kg
  Survivors Day 9(48): 6/6
Lewis Lung Carcinoma; mouse, in vivo, ip, 16 mg/kg
  Survivors Day 9(48): 6/6
Lewis Lung Carcinoma; mouse, in vivo, ip, 20 mg/kg
  Survivors Day 9(48): 6/6
Lewis Lung Carcinoma; mouse, in vivo, ip, 24 mg/kg
  Survivors Day 9(48): 6/6
Lewis Lung Carcinoma; mouse, in vivo, ip, 40 mg/kg
  Survivors Day 9(48): 6/6
Lewis Lung Carcinoma; mouse, in vivo, ip, 60 mg/kg
  Survivors Day 9(48): 6/6
Lewis Lung Carcinoma; mouse, in vivo, ip, 80 mg/kg
  Survivors Day 9(48): 6/6
B16 Melanoma [3]; 2 mg/kg/day ip
  Average Weight Change: -1.1 g
  Effect MST % T/C: 182 % T/C
  MST Days: 37.5 days
B16 Melanoma [3]; 4 mg/kg/day ip
  Average Weight Change: -1.1 g
  Effect MST % T/C: 163 % T/C
  MST Days: 33.5 days
B16 Melanoma [3]; 8 mg/kg/day ip
  Average Weight Change: -2.1 g
  Effect MST % T/C: 190 % T/C
  MST Days: 39.0 days
B16 Melanoma [3]; 16 mg/kg/day ip
  Average Weight Change: -2.3 g
  Effect MST % T/C: >293^a % T/C
  MST Days: >60.0^a Days
B16 Melanoma [4]; 2 mg/kg/day ip
  Effect MST % T/C: 133 % T/C
  MST Days: 26.0 days
B16 Melanoma [4]; 4 mg/kg/day ip
  Effect MST % T/C: 187 % T/C
  MST Days: 36.5 days
B16 Melanoma [4]; 8 mg/kg/day ip
  Effect MST % T/C: 177 % T/C
  MST Days: 34.5 days
B16 Melanoma [4]; 16 mg/kg/day ip
  Effect MST % T/C: >308* % T/C
  MST Days: >60.0* Days
B16 Melanoma [4]; 24 mg/kg/day ip
  Effect MST % T/C: 54 % T/C
  MST Days: 10.5 days
B16 Melanoma [4]; 32 mg/kg/day ip
  Effect MST % T/C: 38 % T/C
  MST Days: 7.5 days
B16 Melanoma [4]; ip B16, ip QD 1→9
  maximum T/C: > 308%
L1210 Leukemia [5]; 20 mg/kg/day ip
  Effect MST % T/C: 143 % T/C
  MST Days: 10.0 days
L1210 Leukemia [5]; 40 mg/kg/day ip
  Effect MST % T/C: 143 % T/C
  MST Days: 10.0 days
L1210 Leukemia [5]; 60 mg/kg/day ip
  Effect MST % T/C: 157 % T/C
  MST Days: 11.0 days
L1210 Leukemia [5]; 80 mg/kg/day ip
  Effect MST % T/C: 171 % T/C
  MST Days: 12.0 days
L1210 Leukemia [6]; 40 mg/kg ip
  Effect MST % T/C: 114 % T/C
  MST Days: 8.0 days
L1210 Leukemia [6]; 60 mg/kg ip
  Effect MST % T/C: 143 % T/C
  MST Days: 10.0 days
L1210 Leukemia [6]; 80 mg/kg ip
  Effect MST % T/C: 129 % T/C
  MST Days: 9.0 days
L1210 Leukemia [6]; 100 mg/kg ip
  Effect MST % T/C: 100 % T/C
  MST Days: 7.0 days

## O=C1[O][Pt]2([NH]C3CCCCC3[NH]2)[O]C(=O)C1O (stereo not drawn) [2-hydroxymalonato(1,2-diaminocyclohexane)platinum (II)]
L-1210 Leukemia [7]; 25 mg/kg/inj ip, d.1
  Average Weight Change: -0.3 g
  Effect MST % T/C: 142 % T/C
  MST Days: 8.5 days
  Survivors Day 5(30): 6/6
L-1210 Leukemia [7]; 50 mg/kg/inj ip, d.1
  Average Weight Change,g: +0.1 g
  Effect MST % T/C: 150 % T/C
  MST Days: 9.0 days
  Survivors Day 5(30): 6/6
L-1210 Leukemia [7]; 100 mg/kg/inj ip, d.1
  Average Weight Change: -1.5 g
  Effect MST % T/C: 183 % T/C
  MST Days: 11.0 days
  Survivors Day 5(30): 6/6
L-1210 Leukemia [7]
  lethality: lethal
  maximum T/C: 183%
  optimal doses: 100 mg/kg
L-1210 Leukemia [7]; 200 mg/kg/inj ip, d.1
  Average Weight Change,g: TOX
  Effect MST % T/C: TOX
  MST Days: TOX
  Survivors Day 5(30): 0/6

## O=C1[O][Pt]2([NH]C3CCCCC3[NH]2)[O]C(=O)C1[O-].[Na+] (stereo not drawn) [Example 6, 2-Hydroxymalonato(1,2-diaminocyclohexane)platinum (II), sodium salt]
L-1210 Leukemia [7]; 6 mg/kg/inj ip, qd 1→9
  Average Weight Change: -0.9 g
  Effect MST % T/C: 192 % T/C
  MST Days: 11.5 days
  Survivors Day 5(30): 6/6
L-1210 Leukemia [7]; 12 mg/kg/inj ip, qd 1→9
  Average Weight Change: -2.3 g
  Effect MST % T/C: 233 % T/C
  MST Days: 14.0 days
  Survivors Day 5(30): 6/6
L-1210 Leukemia [7]; 24 mg/kg/inj ip, qd 1→9
  Average Weight Change: -2.4 g
  Effect MST % T/C: 342 % T/C
  MST Days: 20.5 days
  Survivors Day 5(30): 4/6
L-1210 Leukemia [7]; 25 mg/kg/inj ip, d.1
  Average Weight Change: -0.8 g
  Effect MST % T/C: 183 % T/C
  MST Days: 11.0 days
  Survivors Day 5(30): 6/6
L-1210 Leukemia [7]; 48 mg/kg/inj ip, qd 1→9
  Average Weight Change: -3.3 g
  Effect MST % T/C: 100 % T/C
  MST Days: 6.0 days
  Survivors Day 5(30): 5/6
L-1210 Leukemia [7]; 50 mg/kg/inj ip, d.1
  Average Weight Change: -1.2 g
  Effect MST % T/C: 208 % T/C
  MST Days: 12.5 days
  Survivors Day 5(30): 6/6
L-1210 Leukemia [7]; 100 mg/kg/inj ip, d.1
  Average Weight Change,g: +2.6 g
  Effect MST % T/C: 217 % T/C
  MST Days: 13.0 days
  Survivors Day 5(30): 6/6
L-1210 Leukemia [7]
  lethality: lethal
  maximum T/C: 217%
  optimal doses: 100 mg/kg
L-1210 Leukemia [7]; 200 mg/kg/inj ip, d.1
  Average Weight Change,g: TOX
  Effect MST % T/C: TOX
  MST Days: TOX
  Survivors Day 5(30): 1/6
L-1210 Leukemia [7]; qd 1→9, 12 mg/kg/inj
  T/C: 233%
L-1210 Leukemia [7]; qd 1→9, 24 mg/kg/injection
  T/C: 342%
